A value given as a limit tells only on which side of the number the result lay.

The first test deals with human KRAS G12C mutated cell line MIA PaCa-2. The test can be described thus: Inhibition of proliferation of MIA PaCa-2 cells (CellTiter-Glo, 7 day). In kind it is cell-based. Particulars: 168 h, Table 2, CellTiter-Glo luminescence read on day 7, read-out: MIA PaCa-2 IC50. From the text: The present example evaluates the ability of compounds provided herein to inhibit proliferation of KRAS mutant cells.
The proliferation inhibitory effect was investigated in the human KRAS G12C mutated cell line MIA PaCa-2 (Yunis et al., 1977, Int. J. Cancer 19(1):128-135; ATCC catalog no. CRL-1420). Cells were maintained in RPMI-1640 medium (ThermoFisher catalog no. 61870036) supplemented with 10% of Heat Inactivated FBS (ThermoFisher catalog no. A31605) and 1% Pen-Strep (ThermoFisher catalog no. 10378016) and cultured at 37° C. in a humidified incubator with 5% CO2. Cell lines were grown by adhering to culture flasks, and the cells were maintained in a range 70%-80% confluency.
ATP is present in all metabolically active cells and is considered as a marker for cell viability and proliferation. Metabolic cell activity was determined using the CellTiter-Glo kit (Promega catalog no. G7572), an ATP monitoring system based on the production of luminescence by the reaction of ATP with added UltraGlo® recombinant luciferase (Kawano et al., 2016, PLOS One, 8; 11(7):e0158888), according to the supplier's experimental recommendations. The assay was based on a 96 well plate format.
Test compounds were dissolved at 10 mM in DMSO (Sigma catalog no. D8418; purity >99.9%) and stored at −20° C. Eight concentrations of test compound were assessed in duplicate in an individual test occasion in parallel in the selected cell lines. MRTX-849 and AMG-510 were used as reference compounds and tested in duplicate at eight concentrations. 100% of proliferation is represented by the untreated cells (0.2% DMSO).
On the day of the experiment (TO), cells were detached with TrypLE (ThermoFisher catalog no. 12604054) and quantified using the Vi-CELL XR Cell Viability (Beckman Coulter) analyzer and diluted with fresh medium to obtain the cell density of about 1000 cells per 200 μL medium. 200 μL of cell suspension were added into wells in the 96 well plate.
After 2 hours from seeding cells, compounds were added using a D300e compound dispenser (Tecan Trading AG) at desired concentrations with shaking between each compound dispensed. Cell plates containing 200 μL/well were incubated at 37° C. in a humidified incubator with 5% CO2.
On day T3, 150 μL of growth media per well were removed from plates containing the samples, 150 uL fresh growth media were added to each well, and fresh compounds were added using a D300e compound dispenser (Tecan Trading AG) at desired concentrations with shaking between each compound dispensed. Cell plates containing 200 uL/well were incubated at 37° C. in a humidified incubator with 5% CO2. On day T7 plates containing the samples were equilibrated at room temperature for approximately 15 min, and then 40 μL/well of the Promega CellTiterGlo® reagent was added. Contents were mixed for 30 minutes on an orbital shaker to induce cell lysis. Luminescence was read using a Synergy Neo 2 (Agilent Technologies.
Data was expressed as % of inhibition compared to the 0.2% DMSO negative control, and is calculated as follows: % inhibition=100−[(RLU sample)×100/(RLU controls*)], where * indicates the average for 0.2% DMSO. […]
On the day of the experiment (TO), cells were detached with TrypLE (ThermoFisher catalog no. 12604054), quantified using the Vi-CELL XR Cell Viability (Beckman Coulter) analyzer and resuspended in fresh medium at a cell density of about 1000 cells per 200 μL medium. 200 μL of cell suspension were added to each well of a 96 well plate.
Two hours after seeding cells, compounds were added at desired concentrations using a D300e compound dispenser (Tecan Trading AG) with shaking after each compound addition. Assay plates were incubated at 37° C. in a humidified incubator with 5% CO2.
On day 3 (T3) 150 μL of medium from assay plates were removed. 150 μL fresh medium and compounds were added at desired concentrations using a D300e compound dispenser (Tecan Trading AG) with shaking after each compound addition. […]
For `Oc1cc(Cl)c(C2CC2)c(-c2ccc3c(N4C[C@H]5CC[C@@H](C4)N5)nc(OC[C@@]45CCCN4C[C@H](F)C5)nc3c2F)c1` [Compound 201, 3-(4-((1R,5S)-3,8-diazabicyclo[3.2.1]octan-3-yl)-8-fluoro-2-(((2R,7aS)-2-fluorotetrahydro-1H-pyrrolizin-7a(5H)-yl)methoxy)quinazolin-7-yl)-5-chloro-4-cyclopropylphenol], the half-maximal inhibitory concentration (IC50) came out at 0.358 µM.

The same test, now with this note: 168 h, Table 3, 7 day, mean, read-out: MIA PaCa-2 IC50 (μM) 7 day Mean.
For the compound `C=CC(=O)N1CCC2(c3nc(OC[C@@]45CCCN4C[C@H](F)C5)nc4c(F)c(-c5cc(O)cc6ccccc56)ncc34)CC2C1` (stereo partly drawn) [Compound 310, 1-[6-[8-fluoro-2-[[(2R,8S)-2-fluoro-1,2,3,5,6,7-hexahydropyrrolizin-8-yl]methoxy]-7-(3-hydroxy-1-naphthyl)pyrido[4,3-d]pyrimidin-4-yl]-3-azabicyclo[4.1.0]heptan-3-yl]prop-2-en-1-one], the IC50 is above 1 µM.

With `C=CC(=O)N1C[C@H]2C[C@@H]1CN2c1nc(OC[C@@]23CCCN2C[C@H](F)C3)nc2cc(-c3cc(O)cc(Cl)c3C3CC3)c(F)cc12` [Compound 318, 1-[(1R,4R)-5-[7-(3-chloro-2-cyclopropyl-5-hydroxy-phenyl)-6-fluoro-2-[[(2R,8S)-2-fluoro-1,2,3,5,6,7-hexahydropyrrolizin-8-yl]methoxy]quinazolin-4-yl]-2,5-diazabicyclo[2.2.1]heptan-2-yl]prop-2-en-1-one], the concentration for half-maximal inhibition (IC50) was above 1 µM.

In the case of `C=CC(=O)N1C[C@H]2C[C@@H]1CN2c1nc(OC[C@@]23CCCN2C[C@H](F)C3)nc2c(F)c(-c3cc(O)cc(Cl)c3C3CC3)ccc12` [Compound 311, 1-[(1R,4R)-5-[7-(3-chloro-2-cyclopropyl-5-hydroxy-phenyl)-8-fluoro-2-[[(2R,8S)-2-fluoro-1,2,3,5,6,7-hexahydropyrrolizin-8-yl]methoxy]quinazolin-4-yl]-2,5-diazabicyclo[2.2.1]heptan-2-yl]prop-2-en-1-one], the IC50 was above 1 µM.

For the compound `C=CC(=O)N1C2CCC1CN(c1nc(OC[C@@]34CCCN3C[C@H](F)C4)nc3c(F)c(-c4cc(O)cc5cccc(Cl)c45)ncc13)C2` [Compound 305, 1-[3-[7-(8-chloro-3-hydroxy-1-naphthyl)-8-fluoro-2-[[(2R,8S)-2-fluoro-1,2,3,5,6,7-hexahydropyrrolizin-8-yl]methoxy]pyrido[4,3-d]pyrimidin-4-y1]-3,8-diazabicyclo[3.2.1]octan-8-yl]prop-2-en-1-one], the concentration for half-maximal inhibition (IC50) came out at 0.0023 µM.

With `C=CC(=O)N1C2CCC1CN(c1nc(OC[C@@]34CCCN3C[C@H](F)C4)nc3cc(-c4cccc5cccc(Cl)c45)ccc13)C2` [Compound 324, 1-[3-[7-(8-chloro-1-naphthyl)-2-[[(2R,8S)-2-fluoro-1,2,3,5,6,7-hexahydropyrrolizin-8-yl]methoxy]quinazolin-4-y1]-3,8-diazabicyclo[3.2.1]octan-8-yl]prop-2-en-1-one], the IC50 is above 1 µM.

As to `C=CC(=O)N1CCC(c2nc(OC[C@@]34CCCN3C[C@H](F)C4)nc3c(F)c(-c4cc(O)cc(Cl)c4C4CC4)ncc23)CC1` [Compound 329], the concentration for half-maximal inhibition (IC50) is 0.0144 µM.

The same test, now with this note: 168 h, Table 4, 7 day, mean, read-out: MIA PaCa-2 IC50 (μM) 7 day Mean.
As for `Fc1cc2c(N3CCNC4(CC4)C3)nc(OC[C@@]34CCCN3C[C@H](F)C4)nc2cc1-c1cccc2cccc(Cl)c12` [Compound 421, 7-(8-chloro-1-naphthyl)-4-(4,7-diazaspiro[2.5]octan-7-y1)-6-fluoro-2-[[(2R,8S)-2-fluoro-1,2,3,5,6,7-hexahydropyrrolizin-8-yl]methoxy]quinazoline], the IC50 is above 1 µM.

With `Oc1cc(-c2ncc3c(C4CC5CCC(C4)N5)nc(OC[C@@]45CCCN4C[C@H](F)C5)nc3c2F)c2c(F)c(F)ccc2c1` (stereo partly drawn) [Compound 443, 4-[4-(8-azabicyclo[3.2.1]octan-3-yl)-8-fluoro-2-[[(2R,8S)-2-fluoro-1,2,3,5,6,7-hexahydropyrrolizin-8-yl]methoxy]pyrido[4,3-d]pyrimidin-7-y1]-5,6-difluoro-naphthalen-2-ol], the half-maximal inhibitory concentration (IC50) is above 1 µM.

Regarding `C[C@@H]1CNCCN1c1nc(OC[C@@]23CCCN2C[C@H](F)C3)nc2cc(-c3c(O)cccc3C3CC3)c(F)cc12` [Compound 426], the IC50 was above 1 µM.

As for `Oc1cc(-c2ncc3c(C45CCNCC4C5)nc(OC[C@@]45CCCN4C[C@H](F)C5)nc3c2F)c2ccccc2c1` (stereo partly drawn) [Compound 403, 4-[4-(3-azabicyclo[4.1.0]heptan-6-yl)-8-fluoro-2-[[(2R,8S)-2-fluoro-1,2,3,5,6,7-hexahydropyrrolizin-8-yl]methoxy]pyrido[4,3-d]pyrimidin-7-yl]naphthalen-2-ol], the IC50 turned out to be 7.83 µM.

Take `C=C1CCN(c2nc(OC[C@@]34CCCN3C[C@H](F)C4)nc3c(F)c(-c4cc(O)cc(Cl)c4C4CC4)ncc23)CC1` [Compound 436, 3-chloro-4-cyclopropyl-5-[8-fluoro-2-[[(2R,8S)-2-fluoro-1,2,3,5,6,7-hexahydropyrrolizin-8-yl]methoxy]-4-(4-methylene-1-piperidyl)pyrido[4,3-d]pyrimidin-7-yl]phenol]: the IC50 is above 1 µM.

In the case of `N#C[C@H]1CNCCN1c1nc(OC[C@@]23CCCN2C[C@H](F)C3)nc2cc(F)c(-c3cccc4cccc(Cl)c34)cc12` [Compound 407, (2R)-1-[6-(8-chloro-1-naphthyl)-7-fluoro-2-[[(2R,8S)-2-fluoro-1,2,3,5,6,7-hexahydropyrrolizin-8-yl]methoxy]quinazolin-4-yl]piperazine-2-carbonitrile], the IC50 is above 1 µM.

In the case of `Oc1cc(Cl)c(C2CC2)c(-c2ccc3c(N4CC5CCC(C4)N5)nc(OC[C@@]45CCCN4C[C@H](F)C5)nc3c2)c1` [Compound 428, 3-chloro-4-cyclopropyl-5-[4-(3,8-diazabicyclo[3.2.1]octan-3-y1)-2-[[(2R,8S)-2-fluoro-1,2,3,5,6,7-hexahydropyrrolizin-8-yl]methoxy]quinazolin-7-yl]phenol], the 50% inhibitory concentration (IC50) was above 1 µM.

Consider `Fc1cc2c(N3C[C@H]4C[C@@H]3CN4)nc(OC[C@@]34CCCN3C[C@H](F)C4)nc2cc1-c1cccc2cccc(Cl)c12` [Compound 411, 7-(8-chloro-1-naphthyl)-4-[(1R,4R)-2,5-diazabicyclo[2.2.1]heptan-2-y1]-6-fluoro-2-[[(2R,8S)-2-fluoro-1,2,3,5,6,7-hexahydropyrrolizin-8-yl]methoxy]quinazoline], for which the half-inhibitory concentration (IC50) was above 1 µM.

With `Oc1cc(Cl)c(C2CC2)c(-c2cc3nc(OC[C@@]45CCCN4C[C@H](F)C5)nc(N4CC5CCC(C4)N5)c3cc2F)c1` [Compound 404, 3-chloro-4-cyclopropyl-5-[4-(3,8-diazabicyclo[3.2.1]octan-3-yl)-6-fluoro-2-[[(2R,8S)-2-fluoro-1,2,3,5,6,7-hexahydropyrrolizin-8-yl]methoxy]quinazolin-7-yl]phenol], the IC50 was above 1 µM.

On to `Oc1cc(Cl)c(C2CC2)c(-c2ncc3c(N4CCC5(CC4)CN5)nc(OC[C@@]45CCCN4C[C@H](F)C5)nc3c2F)c1` [Compound 438, 3-chloro-4-cyclopropyl-5-[4-(1,6-diazaspiro[2.5]octan-6-yl)-8-fluoro-2-[[(2R,8S)-2-fluoro-1,2,3,5,6,7-hexahydropyrrolizin-8-yl]methoxy]pyrido[4,3-d]pyrimidin-7-yl]phenol], for which the IC50 is 0.229 µM.

`Oc1cc(Cl)c(C2CC2)c(-c2cc3nc(OC[C@@]45CCCN4C[C@H](F)C5)nc(N4C[C@H]5C[C@@H]4CN5)c3cc2F)c1` [Compound 417]: the half-maximal inhibitory concentration (IC50) was above 1 µM.

Values taken from patent US20240409558A1, “IRREVERSIBLE INHIBITORS OF KRAS” (BIOMEA FUSION, INC., priority 2021, published 2024).
